The subject of experiment [1] is draining popliteal lymph node lymphocytes. Kind of experiment: T-cell proliferation of draining lymph node cells of NOD mice immunized with hsp60 peptides in CFA (Example 1, FIG. 2). It counts as cell-based. The following applies: NOD mice immunized with peptide emulsified in CFA in hind foot pads, assayed after 10 days. The method, then: (§1) (iii) T-Cell proliferation to peptides. Mice. Nine week old NOD mice or mice of other strains were immunized in the hind foot pads with 0.1 ml of an emulsion containing 25 μg peptide in complete Freund's adjuvant (CFA; Difco, Detroit, Mich.) mixed with an equal volume of phosphate-buffered saline (PBS). The draining popliteal lymph nodes were removed 10 days later and suspensions of lymphocytes in triplicate cultures were tested for proliferation in the presence of the various peptides (5 μg/ml) using the incorporation of [^3H]-thymidine as described (Elias et al., 1991).
The immunogenicity of the hsp60 peptides p12, p32, p277(Val^6-Val^11) and p278 in NOD mice was tested by immunizing the mice with the peptides emulsified in CFA in the hind foot pads, and assaying the proliferative responses of draining lymph node cells after 10 days as described above in section iii(a).

The next experiment relates to NOD/Lt female mice. Kind of experiment: Treatment of NOD mice with peptides in IFA: diabetes and mortality (Example 2). The following applies: 100 μg peptide in IFA s.c., nine-week old NOD/Lt females; for Diabetes (%): persistent blood glucose over 11.1 mmol/l at 25 weeks of age. In kind it is in vivo. As to the method: (iv) Treatment and follow-up. Peptides, […], in PBS, were emulsified with an equal volume of IFA and injected subcutaneously into 10-week-old NOD females as described (Elias and Cohen, 1995). Control mice received an equal volume of PBS emulsified in IFA. The mice were monitored monthly for non-fasting blood glucose at 10am using the Blood Glucose Sensor (MediSense. Inc., Waltham, Mass.). […] Histological examination of the islets of the pancreas was done on sections stained with hematoxylin and eosin. The sections were scored independently by two observers who both were unaware of the identity of the groups. The chi square test was used to ascertain the statistical differences between the various treatments.
To test whether the p12 and p32 peptides can block the progression of diabetes as p277(Val^6-Val^11), the p277(Val6-Val^11), p12 or p32 peptides (100 μg in a 0.1 cc emulsion of IFA) were administered subcutaneously to groups of 10-12 nine-week old NOD/Lt female mice of the Jackson Laboratory, Bar-Harbor, Me. Diabetes, determined as persistent blood glucose levels over 11.1 mmol/l, was tested at 25 weeks of age. Control mice were untreated or were treated with p278.

For experiment [2] the following is noted: compared with p277; cited from earlier work.
In experiment [3] the test system is Peripheral mononuclear cells (PBMC) of IDDM patients. In words: T-cell proliferative response of PBMC from newly diagnosed IDDM patients (Example 3). In kind it is cell-based, human. The following applies: for T-cell proliferative response (SI): antigen 10 μg/ml, 6 days, SI more than 2.0 positive. As to the method:
To determine the T-cell responses to the various hsp60 peptides, lymphocytes from the peripheral blood of newly diagnosed (2 weeks-4 months) IDDM patients were tested in a proliferation assay. 10-20 ml of blood were removed into a sterile tube containing heparin as anti-coagulant and diluted in PBS 1:2. Peripheral mononuclear cells (PBMC) were isolated by centrifuging the blood over a lymphoprep layer. The PBMC were tested for proliferation in triplicates, in the presence of the various antigens (10 μg/ml) for 6 days using the incorporation of [^3H]-thymidine as a measure of proliferation. The antigens tested were human hsp60 or the hsp60 peptides p277(Val^6-Val^11), p12, p32 and control peptide p278. The T cell proliferative response is depicted as stimulation index (SI): The ratio between peptide-stimulated thymidine incorporation and background (no antigen added) thymidine incorporation by the T cells.

The next experiment has as its system draining lymph nodes. Kind of experiment: T-cell proliferative responses of NOD mice to peptides (Example 4, FIG. 3). It counts as cell-based. The following applies: NOD mice immunized with 25 μg peptide in IFA, lymph nodes 10 days later, 20 μg/ml. As to the method: FIG. 3 is a graph showing T-cell proliferative responses of NOD mice to peptides. Groups of three NOD mice were […] with peptides mouse p12, mouse p277, GAD-p35 and MT-p278 in IFA each at a dose of 25 μg in IFA. The draining lymph nodes were removed 10 days later and assayed for proliferative responses to the corresponding peptide at the concentrations of 5, 10, 20, and 50 μg/ml. The stimulation at the optimal concentration of 20 μg/ml is shown. The following ranges of cpm were obtained in medium controls: mouse p12, 881; mouse p277, 1243; MT-p278, 698 and GAD-p35 1430. Peptide mouse p38 is a peptide derived from mouse hsp60 (556-573), which has no sequence homology with the tested peptides and serves as a negative control of specificity. […] Each assay was done in triplicates for which the SD values are indicated by the bars. There was no cross-reactivity between the peptides (not shown).
as §1, with “1991). The results are shown as the stimulation index (SI): the ratio of the mean cpm in the presence of the test peptide to the mean cpm of control cultures without the peptide. Standard errors were always less than 10% of the means.” for “1991).”
Spontaneous T cell responses in pre-diabetic NOD mice were detected to the mouse p277 peptide (Elias et al., 1991; Birk et al., 1996) and to larger fragments of the mouse hsp60 molecule that contained the mouse p277 sequence (Birk et al., 1996). […] Other peptides immunogenic for NOD mice are the MT-p278 peptide (residues 458-474 in the Mycobacterial hsp60 molecule), and GAD-p35 (residues 524-543 in the GAD65 molecule).

Another experiment has as its system female NOD mice. In words: Peptide treatment of 10-week old NOD mice, development of diabetes (Example 4, FIG. 4). It counts as in vivo. The following applies: single s.c. injection in IFA at 10 weeks, observed through 8 months of age, vs IFA alone. The method, then:
FIG. 4 is a graph showing the effect of peptide administration on diabetes. Groups of 10-20 NOD mice were treated at 10 weeks of age with 100 μg of mouse p12, p277, p35-GAD or MT-p278 in IFA, or IFA alone. The mice were bled monthly and followed for the onset of hyperglycemia.
(iv) Treatment and follow-up. Peptides, […], in PBS, were emulsified with an equal volume of IFA and injected subcutaneously into 10-week-old NOD females as described (Elias and Cohen, 1995). Control mice received an equal volume of PBS emulsified in IFA. The mice were monitored monthly for non-fasting blood glucose at 10am using the Blood Glucose Sensor (MediSense. Inc., Waltham, Mass.). Mice with a blood glucose greater than 11.1 mmol/L were considered to be diabetic; this concentration of glucose was greater than 3 standard deviations above the mean blood glucose concentration measured in non-diabetic mice (Elias and Cohen, 1995). Histological examination of the islets of the pancreas was done on sections stained with hematoxylin and eosin. The sections were scored independently by two observers who both were unaware of the identity of the groups. The chi square test was used to ascertain the statistical differences between the various treatments.
Following a protocol shown to be effective with mouse p277(Elias et al., 1991; Elias and Cohen, 1994; Elias and Cohen, 1995), groups of 10-week old female NOD mice were treatedby a single subcutaneous injection of each peptide ([…]) emulsified in IFA.

In experiment [4] the test system is serum antibodies of the IgG1, IgG2a and IgG2b isotypes. Kind of experiment: Serum anti-peptide antibody isotypes by ELISA in peptide-treated NOD mice (FIG. 5). In kind it is in vivo. The method, then:
FIGS. 5A-5D show the IgG1, IgG2a and IgG2b antibody isotypes in response to peptide treatment. Mice were treated as described in the legend to FIG. 4. Individual samples were analyzed for antibodies to mouse p12 A; p277 B; GAD-p35 C; and MT-p278 D, of the IgG1, IgG2a and IgG2b isotypes. Similar effects were obtained in two experiments. The results are presented as the absorbance at 405 nm (OD) of 10 individual mice in each group. The level of significance of the prevalence of IgG1 and IgG2b antibodies in groups A and B compared to C and D is P<0.001. The differences between the levels of IgG1 and IgG2b antibodies compared to the IgG2a antibodies in groups A and B were significant (P<0.001). There was no cross-reactivity between the antibodies (not shown).
(v) Serum Antibodies. Mice were bled monthly to detect antibody responses. The ELISA assay was done as described (Elias et al., 1991). Briefly, flat bottom Maxi-sorb plates (Nunc, Roskilde, Denmark) were coated, for the detection of anti-peptide antibodies, with […] of peptide in PBS, at a concentration of […] for 2 h at room temperature followed by over night incubation at 4° C. After incubation with peptide, the plates were washed and blocked for 2 h at 37° C. with 7% BSA (Sigma) in PBS. Sera were diluted 1:50 then added for 2 h at 37° C., followed by incubation for 2 h with […] of goat anti-mouse IgG (gamma chain Fc specific) conjugated to alkaline phosphatase (Jackson, Philadelphia, Pa.). After washing, the plates were incubated with the substrate, diethanolamine (Sigma) and read using an ELISA reader at 405 nm.
Successful treatment of STZ-induced diabetes with mouse peptide p277 was associated with the appearance of anti-peptide antibodies predominantly of the IgG1 and IgG2b isotypes (Elias and Cohen, 1996). The peptide-treated NOD mice for their serum antibodies was therefore examined. […] Thus, effectiveness in inhibiting diabetes was associated with the induction of an antibody response mainly of the IgG1 and IgG2b isotypes.

Results on 7 substances are retold here after patent US6682897B1, “Peptides derived from human heat protein 60 for treatment of diabetes, compositions, methods and kits” (Yeda Research and Development Co. Ltd., priority 1995, dated 2004).

Several values for one entry are separate records, joined by “and”; a condition that tells them apart may be missing. Identical values can stand only once. Marks after values point to notes of the source that are not given here.

In the case of EEIAQVATISANGDKEIGNI [p12], in experiment [1], the “immunogenicity (proliferative responses of draining lymph node cells)” value was “strongly immunogenic”. In the experiment on NOD/Lt female mice, the “Mortality (%)” value was 10* %, the “therapeutic effect in treatment of diabetes” value (shortened to “therapeutic effect”) is reported as “effective in treatment of diabetes” and the “Diabetes (%)” value came to 20%.

Regarding “p277(Val^6): p277 variant with cysteine at position 6 replaced by valine (VLGGGVALLRCIPALDSLTPANED; p277 peptide (437-460); UniProt P10809 437-460, looked up, variant C442V)”, the “activity in the treatment of diabetes” value in experiment [2] is given as “as active as p277”.

Turning to “NEDQKIGIEIIKRTLKI [p278, human hsp60 residues 458-474; control peptide]”, the “T-cell proliferative response (SI)” value in experiment [3] (Patient 1) is given as 0.5; in experiment [3] (Patient 2) it was 0.8; in experiment [3] (Patient 3) it was 0.7; in experiment [3] (Patient 4), 0.9. Also, the “immunogenicity (proliferative responses of draining lymph node cells)” value in experiment [1] is “non-immunogenic”. Moreover, in the experiment on NOD/Lt female mice, the “Mortality (%)” value is recorded as 45%. Moreover, in the experiment with NOD/Lt female mice, the “therapeutic effect” value is given as “no therapeutic effect”. Also, in the experiment with NOD/Lt female mice, the “Diabetes (%)” value is 90%.

With “SRLSKVAPVIKARMMEYGTT [GAD-p35, peptide from the GAD65 molecule (524-543)]”, the “immunogenicity (T-cell proliferative response)” value in the experiment with draining lymph nodes was “immunogenic, but less so”. Moreover, in the experiment with female NOD mice, the development of diabetes result is listed as “no different than was treatment with IFA alone”. Moreover, in experiment [4] (10 individual mice per group, ELISA), the “mice that made specific IgG1 antibodies” value was “none”. Also, the “titers of IgG2b antibodies” value in experiment [4] (compared with mouse p12 and mouse p277 groups) is listed as “significantly lower titers”. Moreover, the “antibody titers of the IgG1 and IgG2b isotypes” value in experiment [4] (peptide-treated NOD mice, sera diluted 1:50, ELISA) is “did not respond as strongly”.

For EIIKRTLKIPAMTIAKNAGV [p32], the “immunogenicity (proliferative responses of draining lymph node cells)” value in experiment [1] is on record as “strongly immunogenic”. In addition, in the experiment on NOD/Lt female mice, the “Mortality (%)” value is reported as 25* %; the “therapeutic effect” value is on record as “effective in treatment of diabetes”; the “Diabetes (%)” value is 30% and 50* %.

For “p277(Val^11): p277 variant with cysteine at position 11 replaced by valine (VLGGGCALLRVIPALDSLTPANED; p277 peptide (437-460); UniProt P10809 437-460, looked up, variant C447V)”, in experiment [2], the “activity in the treatment of diabetes” value is “as active as p277”.

Take “hsp60: human 60 KDa heat shock protein (SEQ ID NO:1)”: the “T-cell proliferative response (SI)” value is on record as 5.6 in experiment [3] (Patient 1); 7.5 in experiment [3] (Patient 2); 8.0 in experiment [3] (Patient 3); 3.4 in experiment [3] (Patient 4); 1.2 in experiment [3] (Patient 5); 6.7 in experiment [3] (Patient 6). For the same substance, the “T-cell proliferative response (SI)” value in experiment [3] (Patient 7) was 10.3; in experiment [3] (Patient 8), 1.3. Moreover, the patients that responded in experiment [3] (of 8 newly diagnosed IDDM patients, SI more than 2.0) is 6/8.
